Values belong to the compound of their own block, whether it stands above or below them.
Key:
[1] = Initial trials: detected range of plasma vitamin E metabolites (LC-MS); type: in vivo, horse
Method: (§1) Analytes were simultaneously quantified via ultra-performance liquid chromatography-tandem mass spectrometry (LC-MS). LC-MS analysis was carried out using a Bruker EVOQ LC-TQ Mass Spectrometer coupled with a Bruker Advance HPLC system (Bruker Corp, Freemont, Calif., USA). Mass spectral data for α- and γ-tocopherols and α- and γ-tocotrienols were acquired in the positive ion electrospray ionization (ESI) mode with the following retention times (RT) and scan events: γ-tocotrienol—RT 11.65 min, MRM 411.0>151.0 (CE 19.0V), α-tocotrienol—RT 12.0 min, MRM 425.1>165.1 (CE 20.0V), γ-tocopherol—RT 13.3 min, MRM 417.2>151.0 (CE 25.0V), 5-methyl-D3,7-methyl-D3 (TD6)—RT 13.8 min, MRM 437.4>171.0 (CE 27.0V), and α-tocopherol—RT 13.8 min, MRM 431.2>165.0 (CE 25.0V). Mass spectral data for α- and γ-CEHC and α-CMBHC were acquired in the negative ion ESI mode with the following retention times (RT) and scan events: α-CMBHC—RT 7.45 min, MRM 319.1>150.1 (CE 22.0V), α-CEHC—RT 5.70 min, MRM 277.0>233.1 (CE 14.0V), and γ-CEHC—RT 5.30 min, MRM 263.1>219.1 (CE13.0V). Quantification was carried out using a 10-point calibration curve covering the range from 0.1 ng/mL to 5,000 ng/mL and linear regression. Each level of calibration standard contained the internal standard TD6 at 100 ng/mL and CUDA at 2 ng/mL, matching their final concentrations in the analysis samples.
The limit of detection (ng/mL) and detected range (ng/mL), respectively, for each plasma vitamin E metabolite measured in these initial trials were as follows: α-TOH (0.1; 500-1000), γ-TOH (0.2; 10-15), α-tocotrienol (0.2; 0.2-0.6), γ-tocotrienol (0.2; 5-10), α-CMBHC (<0.05; 0.1-0.4), γ-CEHC (<0.05; 0.2-0.6), and α-CEHC (<0.05; 0.1-0.2).

[2] = Reference values of tocopherols, tocotrienols and metabolites in healthy grazing Thoroughbred horses (LC-MS); type: in vivo, horse
Method: (§2) In particular, the levels of a panel of tocopherols and tocopherol metabolites were assessed by liquid chromatography-mass spectrometry (LC-MS) in samples obtained from eNAD affected horses and matched healthy controls. Reference ranges of α-TOH, γ-TOH, α-TOT, γ-TOT, α-CEHC, γ-CEHC, and α-CMBHC were determined from serum, plasma and urine samples obtained from 16 healthy adult Thoroughbred horses on pasture. Next a supplementation trial was performed employing samples from eNAD-affected horses and neurologically normal age and sex-matched controls. Levels were assessed at baseline and after administration of bioavailable RRR-alpha-tocopherol according to the sample collection schedule described (see e.g., FIG. 2).
as §1

[3] = Supplementation trial: serum levels in eNAD-affected and control horses at baseline and after bioavailable RRR-alpha-tocopherol (LC-MS); type: in vivo, horse
Method: This example describes investigations into the role of metabolism of α-TOH in horses affected with eNAD/EDM. Accordingly, the rate of α-TOH and γ-TOH metabolism was determined through the measurement of CEHCs in healthy and eNAD-affected horses following α-TOH supplementation.
as §2, §1
Simultaneous quantification of α-TOH, γ-TOH, α-tocotrienol, γ-tocotrienol, α-CEHC, γ-CEHC, and α-CMBHC has not been previously performed in the horse. Data was Log-transformed. Correspondence between sample types (e.g., plasma vs. serum) was evaluated and statistical testing by Mixed-model ANOVA was performed (fixed variables=disease, time; randomized variable=horse; 2-way interactions; p<0.05).

[4] = earlier study; cited from earlier work
[5] = serum, healthy grazing TBs, tocotrienols

- detected range of plasma vitamin E metabolite ([1]; in vivo): 0.1 to 0.2 ng/mL
- mean value for healthy grazing TBs ([2]; in vivo): 0.33±0.12
- median value for healthy grazing TBs ([2]; in vivo): 0.31
- range of values for healthy grazing TBs ([2]; in vivo): 0.18-0.67
Compound: Cc1c(C)c2c(c(C)c1O)CCC(C)(CCC(=O)O)O2 (stereo not drawn) [α-CEHC, alpha-carboxyethyl-hydroxychroman]

- detected range of plasma vitamin E metabolite ([1]; horse, in vivo): 0.1 to 0.4 ng/mL
- mean value for healthy grazing TBs ([2]; Thoroughbred, horse, in vivo): 0.72±0.37
- median value for healthy grazing TBs ([2]; Thoroughbred, horse, in vivo): 0.6
- range of values for healthy grazing TBs ([2]; Thoroughbred, horse, in vivo): 0.32-1.71
- Serum α-CMBHC (median, range) ([3]; horse, in vivo, 56 day): 0.32 (0.12-0.40) ng/mL
- concentration at 56 day ([3]; horse, in vivo, Serum α-CMBHC (median, range)): 0.28 ng/mL
Compound: Cc1c(C)c2c(c(C)c1O)CCC(C)(CCCC(C)C(=O)O)O2 (stereo not drawn) [α-CMBHC, 2-(4-Carboxy-4-methylbutyl)-6-hydroxy-2,5,7,8-tetramethylchroman]

- detected range of plasma vitamin E metabolite ([1]; in vivo): 500 to 1000 ng/mL
- mean value for healthy grazing TBs ([2]; in vivo): 4292±892
- median value for healthy grazing TBs ([2]; in vivo): 4348
- range of values for healthy grazing TBs ([2]; in vivo): 2855-6299
- rate of α-TOH metabolism in eNAD horses vs control horses ([3]; in vivo): faster rates than control horses
Compound: Cc1c(C)c2c(c(C)c1O)CC[C@@](C)(CCC[C@H](C)CCC[C@H](C)CCCC(C)C)O2 [α-TOH, alpha-tocopherol, reference compound]
- α-TOH absorption indices, eNAD-affected vs unaffected horses [4]: no significant differences

- detected range of plasma vitamin E metabolite ([1]; in vivo): 0.2 to 0.6 ng/mL
- mean value for healthy grazing TBs ([2]; in vivo): 0.43±0.18
- median value for healthy grazing TBs ([2]; in vivo): 0.38
- range of values for healthy grazing TBs ([2]; in vivo): 0.26-0.89
Compound: Cc1c(O)cc2c(c1C)OC(C)(CCC(=O)O)CC2 (stereo not shown) [γ-CEHC, gamma-carboxyethyl-hydroxychroman]

- detected range of plasma vitamin E metabolite ([1]; horse, in vivo): 10 to 15 ng/mL
- mean value for healthy grazing TBs ([2]; Thoroughbred, horse, in vivo): 27.1±9.82
- median value for healthy grazing TBs ([2]; Thoroughbred, horse, in vivo): 25.6
- range of values for healthy grazing TBs ([2]; Thoroughbred, horse, in vivo): 10.3-44.7
Compound: Cc1c(O)cc2c(c1C)O[C@](C)(CCC[C@H](C)CCC[C@H](C)CCCC(C)C)CC2 [γ-TOH, gamma-tocopherol]

Compound: CC(C)=CCC/C(C)=C/CC/C(C)=C/CC[C@]1(C)CCc2cc(O)c(C)c(C)c2O1 [γ-TOT, gamma-tocotrienol]
- detected range of plasma vitamin E metabolite ([1]; plasma, initial trials): 5 to 10 ng/mL
- mean value in healthy grazing TBs [2, 5]: 0.13 ± 0.36 ng/mL
- median value in healthy grazing TBs [2, 5]: 0.02 ng/mL
- range of values in healthy grazing TBs [2, 5]: 0.02 to 1.79 ng/mL
- difference in serum tocotrienol levels with time or disease ([3]; serum, eNAD vs control horses, over time): no significant difference

- detected range of plasma vitamin E metabolite ([1]; in vivo): 0.2 to 0.6 ng/mL
- mean value in healthy grazing TBs ([2]; in vivo): 0.31 ± 0.36 ng/mL
- median value in healthy grazing TBs ([2]; in vivo): 0.15 ng/mL
- range of values in healthy grazing TBs ([2]; in vivo): 0.004 to 1 ng/mL
- difference in serum tocotrienol levels with time or disease ([3]; in vivo): no significant difference
Compound: alpha-tocotrienol [α-TOT]

Source: US20210270852A1, “Methods of Detecting Neuroaxonal Dystrophy Disorders Associated with Vitamin E Deficiency and Uses Thereof” (The Regents of the University of California, priority 2018, published 2021)
